Data reported in patent US20240099295A1, “CELL TREATMENT AGENT” (AYA Inc., priority 2021, published 2024).

Columns and labels:
Type in all cases: cell-based
[1] = tested on: rat corneal epithelial cells; experiment: Re-adhesion of detached and suspended cells to calcium phosphate film (F-actin fluorescent staining)
Source text: Whether the cells having been detached and suspended as described above were re-adhered by calcium ions was examined. Part of the bottom of the culture dish was coated with a slurry of calcium phosphate fine powder mixed with distilled water and dried in an oven to separately prepare a culture dish in which a film of fine powder of calcium phosphate was stuck to the bottom of the dish. Then, to the culture dish with the calcium phosphate film and the culture dish without the film (control), a cell culture solution containing the detached and suspended cells as described above was added, the culture dishes were placed on the base of a shaker (product name: Laboshaker Model BC-740, available from BIO CRAFT Corporation), the shaking intensity was set to the lowest level, the shaking frequency was set to 4 times/min, and the cells were cultured under normal cell culture conditions (37° C., CO2 concentration of 5%, humidity of 100%) for 24 hours while the culture dishes were gently shaken. The culture solution in each culture dish was then removed, and the culture dishes were gently washed with 10% FBS cell culture solution, and then viable cells adhered to the inner wall of the culture dishes were observed under a microscope (inverted fluorescence/visible microscope with cooled CCD camera, IX83, available from Olympus Corporation) by the fluorescent staining method of F-actin using viable cell staining by a fluorescent dye (CytoPainter F-actin Staining Kit, available from Abcam). The fluorescent staining method of F-action can be performed, for example, according to the method described in Vera D M, Robert J E, Ved P S, Orrin S and John S C, “Optimizing leading edge F-actin labeling using multiple actin probes, fixation methods and imaging modalities” BIOTECHNIQUES, VOL. 66, NO. 3, (2019), or in Michael M, Matthias P and Robert G “Actin visualization at a glance” n J. Cell Sci. 130, 525-530. (2017) doi:10.1242/jcs.20448.
In FIGS. 1 to 4, the part that looks white or gray is a viable cell group stained with the fluorescent dye.

[2] = tested on: Chinese hamster fibroblast; experiment: Cell protective effect: cell survival during preservation (trypan blue excretion test); settings: Chinese hamster fibroblasts; same preservation experiments; values not given
Procedure: Using a normal serum-free cell culture solution without FBS or a Ringer's solution (Otsuka Pharmaceutical Co., Ltd., Lactec Injection, Japanese Pharmacopoeia, Sodium L-lactate Ringer's solution) as a conditioning solution for use, for example, in preservation and transportation of cells, sodium alginate (Na alginate) (Fuji Chemical Industry Co., Ltd. Snow Algin SSL, viscosity of 1% aqueous solution is 30 mPa·s at 20° C.) was added to the conditioning solution in the concentrations shown in Table 1 to prepare cell preservation solutions. To each cell preservation solution, the above-described cells were added at a concentration of 10^6 cells/ml to satisfy the conditions shown in Table 1, and the resultant solution was left to stand in a room at normal temperature (22° C.) for 24 hours, and then whether cells were alive or dead was determined, and rates of viable cells (average survival rate (%)) were calculated and compared. Cell viability was determined by the trypan blue excretion test that is the ordinary method of confirming cell viability. The excretion test was performed according to the method described in “Denizot F., et al., Rapid colorimetric assay for cell growth and survival. Modifications to the tetrazolium dye procedure giving improved sensitivity and reliability. J. Immunol. Methods, 89, 271-277 (1986)”. The results are of N=4.
The average survival rate (%) was determined in the same manner as in Experimental Example (1-1-1) except that the preservation conditions were changed to leaving still for 72 hours in a refrigerator at a set temperature of 4° C. The results are of N=4.

[3] = tested on: human amnion-derived mesenchymal stem cells; experiment: Differentiation state maintenance: marker positive rate by flow cytometry; settings: DS 0.1 mg/mL in serum-free cell culture solution, 5 days of culture
Procedure: Using dextran sulfate (DS) as an active ingredient of the cell treatment agent, the cell dormancy effect by DS was considered according to the effect of preventing differentiation by maintaining the cells in an undifferentiated state, as an index. As the cells, human amnion-derived mesenchymal stem cells in an undifferentiated state were used. Using a normal serum-free cell culture solution as a conditioning solution, a cell preservation solution a was prepared by adding DS to the conditioning solution at 0.1 mg/ml, and a cell preservation solution b was prepared by adding FBS to the conditioning solution at 10%. To each of the cell preservation solutions a and b, the aforementioned stem cells were added at 10^5 cells/ml, respectively, and then cultured for 5 days under normal cell culture conditions (37° C., CO2 concentration of 5%, humidity of 100%). The degrees of differentiation of stem cells before culture and after 5 days of culture were evaluated and compared by flow cytometry. The method followed the method described in Masoumeh Fakhr Taha, Vahideh Hedayati “Isolation, identification and multipotential differentiation of mouse adipose tissue-derived stem cells” Tissue and Cell 42 (2010) 211-216. The evaluation was made according to CD29 and CD44 as undifferentiation markers and CD11b, CD31, and CD45 as markers of differentiation into mesenchymal cells.

[4] = tested on: rat corneal epithelial cells; experiment: Cell detaching and suspending effect (Experimental Example 4)
Procedure: A culture solution in which FBS was added to a normal serum-free cell culture solution in a concentration of 10% (10% FBS cell culture solution) was prepared in a culture dish. To this, rat corneal epithelial cells were added at 10^6 cells/ml and cultured for 24 hours under normal cell culture conditions (37° C., CO2 concentration of 5%, humidity of 100%) to make the cultured cells fully adhere to the culture dish wall which is a scaffold.
The culture solution in the culture dish on which cultured cells obtained as described above had adhered was replaced with each of dextran sulfate aqueous solutions and a dextran aqueous solution, which are respectively obtained by dissolving dextran sulfate (Dextran sodium sulfate MW 36000-50000, available from FUJIFILM Wako Pure Chemical Corporation) and dextran (Dextran MW 35000-50000, available from FUJIFILM Wako Pure Chemical Corporation) in purified water and have concentrations shown in Table 13, and the resultant culture solutions were continuously cultured under normal cell culture conditions (37° C., CO2 concentration of 5%, humidity of 100%). For each adherent cell, detachment and suspension of adherent cells from the dish wall was observed over time. For determination of detachment and suspension, the culture dish was gently shaken manually to observe whether the cells were detached from the dish wall and suspended, and the case where 90% or more of the cells were detached and suspended was determined as detachment and suspension of adherent cells. The results are of N=4. In Table 13, “∘” means that the cells were detached and suspended, and “x” means that the cells were not detached and suspended.

[5] = tested on: Chinese hamster fibroblasts; experiment: as above; settings: same experiment as Table 13 with Chinese hamster fibroblasts
[6] = culture dish with calcium phosphate film, 24 hours culture under gentle shaking (FIGS. 1 and 2)
[7] = culture dish without calcium phosphate film (control), 24 hours culture under gentle shaking (FIGS. 3 and 4)

Substance	Re-adhesion of detached and suspended viable cells [1, 6]	Re-adhesion of detached and suspended viable cells [1, 7]	Effect of improving cell viability (cell protective effect) [2]	Positive rate of marker CD11b after culture ([3]; differentiation marker)	Positive rate of marker CD31 after culture ([3]; differentiation marker)	Positive rate of marker CD45 after culture ([3]; differentiation marker)	Positive rate of marker CD29 after culture ([3]; undifferentiation marker)	Positive rate of marker CD44 after culture ([3]; undifferentiation marker)	Detachment and suspension of adherent cells by lapse time after replacement (hour) ([4]; DS 0.1 mg/mL aqueous solution (MW 36000-50000), later lapse times up to 48 h, span not shown)	Detachment and suspension of adherent cells by lapse time after replacement (hour) ([4]; DS 0.1 mg/mL aqueous solution (MW 36000-50000), starts at <12 h)	Detachment and suspension of adherent cells by lapse time after replacement (hour) ([4]; DS 1 mg/mL aqueous solution (MW 36000-50000), later lapse times up to 48 h, span not shown)	Detachment and suspension of adherent cells by lapse time after replacement (hour) ([4]; DS 1 mg/mL aqueous solution (MW 36000-50000), starts at <12 h)	Detachment and suspension of adherent cells by lapse time after replacement (hour) ([4]; DS 10 mg/mL aqueous solution (MW 36000-50000), later lapse times up to 48 h, span not shown)	Detachment and suspension of adherent cells by lapse time after replacement (hour) ([4]; DS 10 mg/mL aqueous solution (MW 36000-50000), starts at <12 h)	Detachment and suspension of adherent cells [5]
heparin sodium [Heparin Na, reference compound]	numerous viable cells were observed adhering	a very small number of viable cells adhered	the cell protective effect was also observed	–	–	–	–	–	–	–	–	–	–	–	–
dextran sulfate [DS]	numerous viable cells were observed adhering	a very small number of viable cells adhered	the cell protective effect was also observed	19.8%	8.3%	7.3%	98.7%	62.3%	∘ (“∘” means that the cells were detached and suspended)	x (“x” means that the cells were not detached and suspended)	∘ (“∘” means that the cells were detached and suspended)	x (“x” means that the cells were not detached and suspended)	∘ (“∘” means that the cells were detached and suspended)	x (“x” means that the cells were not detached and suspended)	equivalent results were obtained
